These results are taken from US5811439A, “Thiazolidinedione derivatives, method for preparing the derivatives and pharmaceutical compositions containing same” (Senga Pharmaceutical Laboratory Inc., priority 1995, dated 1998).

The nature of data set [1]: Acute toxicity test, oral administration to rats. To be noted: rat, in vivo, orally administered. Here is the method:
The acute toxicity was determined by an acute toxicity test wherein each sample compound was orally administered to rats. The results (LD50 values) thus obtained are listed below: […]

The next data set concerns 3T3-L1 cells. Put plainly: Glucose-uptake test (2-DOG uptake) in 3T3-L1 cells. Type of data set: cell-based. The conditions noted are these: cpm divided by amount of proteins; for activity at 50 µg/mL: Mus musculus, 3T3-L1, 24 h, 50 μg/ml, read-out: 2-DOG Uptake (%) at a concentration of 50 μg/ml. How it is done:
Glucose-uptake tests as a means for screening compounds for the effect of reducing the blood sugar level were carried out according to the following procedures. 1) Cell: The following cells were used. 3T3-L1 (purchased from Dainippon Pharmaceutical Co. Ltd.) 2) Reagents: The following reagents were used. DMEM (GIBCO); FBS (GIBCO); […] DMSO: dimethylsulfoxide (Wako Pure Chemical Co., Ltd.); ACS2 (Amersham); urea (Wako Pure Chemical Co., Ltd.); protein-determining kit (Bio Rad Code No.). 3) Instrument: The following instrument was used in the test. 24-well plate (Falcon) 3T3-L1 cells were dispersed in a 10% FBS-containing DME medium in a cell concentration of 10000 cells/ml, the resulting cell suspension was dispensed into a 24-well plate in an amount of 1 ml per well and the cells were cultivated in a 5% CO2 -incubator at 37° C. for 5 days. After soaking up the medium in the wells, the plate was washed once with PBS in an amount of 2 ml/well. […] The cells were cultivated in a sample compound-containing medium at 37° C. for 24 hours in a 5%-CO2 -incubator. After the cultivation, the medium was soaked up and the plate was washed three times with 2 ml/well each of PBS. […] After washing with 2 ml/well of PBS, the PBS was sufficiently soaked up. […] The lysate was also inspected for the amount of proteins using 0.2 ml out of the rest of the lysate, according to the microassay method using a protein-determining kit.

For `O=C1NC(=O)C(Cc2cccc3c2ccn3Cc2ccccc2)S1` (stereo not drawn) [Example 3, 5-(1-benzylindol-4-yl)methyl-2,4-thiazolidinedione], in data set [1], the LD50 was at least 2000 mg/kg. Further, the activity at 50 µg/mL in the data set with 3T3-L1 cells was determined as 217%.
In data set [1], `O=C1NC(=O)C(Cc2cccc3c2ccn3Cc2ccc(F)cc2)S1` (stereo not drawn) [Example 52, 5-[1-(4-fluorobenzyl)indol-4-yl]-methyl-2,4-thiazolidinedione] gave an LD50 of at least 2000 mg/kg. Also, the activity at 50 µg/mL in the data set with 3T3-L1 cells was determined as 280%.
Take `CC(c1ccccc1)n1ccc2c(C=C3SC(=O)NC3=O)cccc21` (stereo not drawn) [Example 173, 5-[1-(α-methylbenzyl)indol-4-yl]methylene-2,4-thiazolidinedione]: the activity at 50 µg/mL with 3T3-L1 cells turned out to be 153%.
As to `CC(c1ccccc1)n1ccc2c(CC3SC(=O)NC3=O)cccc21` (stereo not drawn) [Example 174, 5-[1-(α-methylbenzyl)indol-4-yl]methyl-2,4-thiazolidinedione], in the data set on 3T3-L1 cells, the activity at 50 µg/mL is 252%.
The same measure, in the same setting: next, `O=C1NC(=O)C(Cc2cccc3c2ccn3C(c2ccccc2)c2ccccc2)S1` (stereo not drawn) [Example 177, 5-[1-(benzhydryl)indol-4-yl]methyl-2,4-thiazolidinedione]: 159%; `O=C1NC(=O)C(Cc2cccc3c2ccn3C2CCCCC2)S1` (stereo not drawn) [Example 180, 5-(1-cyclohexylindol-4-yl)methyl-2,4-thiazolidinedione]: 232%.
Consider `O=C1NC(=O)C(Cc2cccc3c2ccn3CC(=O)c2ccccc2)S1` (stereo not drawn) [Example 187, 5-(1-phenacylindol-4-yl)methyl-2,4-thiazolidinedione], for which the activity at 50 µg/mL with 3T3-L1 cells turned out to be 174%.
As to `Nc1ccc(Cn2ccc3c(CC4SC(=O)NC4=O)cccc32)cc1` (stereo not drawn) [Example 190, 5-[1-(4-aminobenzyl)indol-4-yl]methyl-2,4-thiazolidinedione], the activity at 50 µg/mL in the data set with 3T3-L1 cells was found to be 164%.
Same read-out and setting: next, `CC1(C)[C@H]2CC=C(Cn3ccc4c(CC5SC(=O)NC5=O)cccc43)[C@@H]1C2` (stereo partly drawn) [Example 199, 5-[1-(1S, 5S, 2-pinen-10-yl)indol-4-yl]methyl-2,4-thiazolidinedione]: 206%.
Still for that read-out and setting: next, `C=C(C)[C@@H]1CC=C(Cn2ccc3c(CC4SC(=O)NC4=O)cccc32)CC1` (stereo partly drawn) [Example 208, 5-[1-(4S-p-mentha-1,8-dien-7-yl)indol-4-yl]methyl-2,4-thiazolidinedione]: 189%; `O=C1NC(=O)C(Cc2cccc3c2ccn3Cc2cc(C(F)(F)F)cc(C(F)(F)F)c2)S1` (stereo not drawn) [Example 214, 5-{1-[3,5-bis(trifluoromethyl)benzyl]indol-4-yl}methyl-2,4-thiazolidinedione]: 185%.
For `O=C1NC(=O)C(Cc2cn(Cc3cc(F)ccc3F)c3ccccc23)S1` (stereo not drawn) [Example 250, 5-[1-(2,5-difluorobenzyl)indol-3-yl]methyl-2,4-thiazolidinedione], the activity at 50 µg/mL in the data set with 3T3-L1 cells worked out at 209%.
On the same count and under the same terms, next, `O=C1NC(=O)C(Cc2cn(Cc3ccc(Cl)cc3)c3ccccc23)S1` (stereo not drawn) [Example 253, 5-[1-(4-chlorobenzyl)indol-3-yl]methyl-2,4-thiazolidinedione]: 203%; `Nc1ccc(Cn2cc(CC3SC(=O)NC3=O)c3ccccc32)cc1` (stereo not drawn) [Example 256, 5-[1-(4-aminobenzyl)indol-3-yl]methyl-2,4-thiazolidinedione]: 172%; `O=C1NC(=O)C(Cc2cn(Cc3ccc(C(F)(F)F)cc3)c3ccccc23)S1` (stereo not drawn) [Example 271, 5-{1-[4-(trifluoromethyl)benzyl]indol-3-yl}methyl-2,4-thiazolidinedione]: 165%.
The same measure, in the same setting: next, `O=C1NC(=O)C(Cc2cn(Cc3cccc(F)c3)c3ccccc23)S1` (stereo not drawn) [Example 273, 5-[1-(3-fluorobenzyl)indol-3-yl]methyl-2,4-thiazolidinedione]: 215%; `O=C1NC(=O)C(Cc2cn(Cc3cc(F)cc(F)c3)c3ccccc23)S1` (stereo not drawn) [Example 275, 5-[1-(3,5-difluorobenzyl)indol-3-yl]methyl-2,4-thiazolidinedione]: 185%; `Cc1cccc(Cn2cc(CC3SC(=O)NC3=O)c3ccccc32)c1` (stereo not drawn) [Example 281, 5-[1-(3-methylbenzyl)indol-3-yl]methyl-2,4-thiazolidinedione]: 244%.
Regarding `N#Cc1cccc(Cn2cc(CC3SC(=O)NC3=O)c3ccccc32)c1` (stereo not drawn) [Example 283, 5-[1-(3-cyanobenzyl)indol-3-yl]methyl-2,4-thiazolidinedione], in the data set on 3T3-L1 cells, the activity at 50 µg/mL was found to be 232%.
The same measure, in the same setting: under `N#Cc1ccc(Cn2cc(CC3SC(=O)NC3=O)c3ccccc32)cc1` (stereo not drawn) [Example 285, 5-[1-(4-cyanobenzyl)indol-3-yl]methyl-2,4-thiazolidinedione] stands 225%.
Take `O=C1NC(=O)C(Cc2cn(Cc3ccccc3)c3ccccc23)S1` (stereo not drawn) [Example 288, 5-(1-benzylindol-3-yl)methyl-2,4-thiazolidinedione]: the activity at 50 µg/mL in the data set on 3T3-L1 cells was found to be 209%.
On the same count and under the same terms, next, `O=C1NC(=O)C(Cc2ccc3c(ccn3CCc3ccccc3)c2)S1` (stereo not drawn) [Example 305, 5-(1-phenethylindol-5-yl)methyl-2,4-thiazolidinedione]: 215%.
As for `O=C1NC(=O)C(Cc2cc3ccccc3n2Cc2ccccc2)S1` (stereo not drawn) [Example 312, 5-(1-benzylindol-2-yl)methyl-2,4-thiazolidinedione], the activity at 50 µg/mL in the data set on 3T3-L1 cells was 164%.
Turning to `O=C1NC(=O)C(Cc2cn(Cc3ccc(O)cc3)c3ccccc23)S1` (stereo not drawn) [Example 317, 5-[1-(4-hydroxybenzyl)indol-3-yl]methyl-2,4-thiazolidinedione], the activity at 50 µg/mL in the data set on 3T3-L1 cells is 169%.
For the compound `Cl.O=C1NC(=O)C(Cc2cccc3c2ccn3Cc2ccccn2)S1` (stereo not drawn) [Example 337, 5-[1-(2-picolyl)indol-4-yl]methyl-2,4-thiazolidinedione hydrochloride], in the data set on 3T3-L1 cells (24 hours), the “2-DOG Uptake (%) at a concentration of 50 μg/ml” value amounted to 181%.

One may read the LD50 as the dose expected to kill half of the subjects tested.
